Experimental data from patent US6677316B2, “Adenosine derivatives and methods of administration” (SmithKline Beecham Corporation, priority 1998, dated 2004).

Assays:
[1] = target: T1, human adenosine A1 receptor (Homo sapiens, UniProt P30542); assay: Reporter gene assay (CRE/SPAP) in CHO cells, agonist potency relative to NECA, adenosine A1 receptor; assay type: cell-based; parameters: key: equipotent concentration ratio, NECA = 1; settings: ECR = equipotent concentration ratio relative to NECA = 1, inhibition of forskolin-stimulated SPAP production
T1 construct: expressed in transfected cells; host or cells: Chinese hamster ovary (CHO) cells with CRE/SPAP/HYG reporter elements
T1 sequence (P30542 1-326): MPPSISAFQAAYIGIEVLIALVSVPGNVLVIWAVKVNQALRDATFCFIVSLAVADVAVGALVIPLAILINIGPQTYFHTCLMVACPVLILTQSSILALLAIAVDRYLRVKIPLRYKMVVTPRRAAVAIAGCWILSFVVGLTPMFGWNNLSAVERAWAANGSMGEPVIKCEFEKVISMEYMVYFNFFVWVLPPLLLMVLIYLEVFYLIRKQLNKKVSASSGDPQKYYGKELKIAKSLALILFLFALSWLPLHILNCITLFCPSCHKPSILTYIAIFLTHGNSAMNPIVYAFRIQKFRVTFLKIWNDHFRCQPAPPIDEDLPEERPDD
Method: (§1) Reporter Gene Experiments
(§2) Agonist activity was measured in Chinese hamster ovary (CHO) cells containing the CRE/SPAP/HYG (CRE=cyclic AMP response element; HYG=hygromycin resistance; SPAP=secreted placental alkaline phosphatase) reporter gene elements, which upon stimulation of cAMP levels produced SPAP. A cell line was used, which was stably transfected with either the human adenosine A1 receptor or the human adenosine A3 receptor in addition to the above elements. Cells were plated out in 96-well plates in culture medium and incubated at 37° C. for 1 hour. For measurement of potency, agonists were added to the appropriate wells at a concentration range of approximately 10^−10- 10^−5M. 15Min later, cAMP levels were stimulated by addition of a maximal concentration of forskolin. All cells were then incubated for a further 5 hours at 37° C., and cooled to room temperature, after which a substrate for the phosphatase (para-nitrophenol phosphate, pNPP), which is converted by SPAP to a coloured reagent) was then added and the 96-well -plates were read in a plate reader. From these readings, the concentration-dependence of the inhibition by the agonist for forskolin-stimulated SPAP production can be calculated. One of the agonists tested on each 96-well plate was the standard non-selective agonist, N-ethylcarboxamidoadenosine (NECA), and the potency of all test agonists is expressed relative to that of the NECA standard.
(§3) (ECR=equipotent concentration ratio relative to NECA=1)

[2] = target: T2, human adenosine A3 receptor (Homo sapiens, UniProt P0DMS8); assay: Reporter gene assay (CRE/SPAP) in CHO cells, agonist potency relative to NECA, adenosine A3 receptor; assay type: cell-based; parameters: key: equipotent concentration ratio, NECA = 1; settings: ECR = equipotent concentration ratio relative to NECA = 1, inhibition of forskolin-stimulated SPAP production
T2 construct: expressed in transfected cells; host or cells: Chinese hamster ovary (CHO) cells with CRE/SPAP/HYG reporter elements
T2 sequence (P0DMS8 1-318): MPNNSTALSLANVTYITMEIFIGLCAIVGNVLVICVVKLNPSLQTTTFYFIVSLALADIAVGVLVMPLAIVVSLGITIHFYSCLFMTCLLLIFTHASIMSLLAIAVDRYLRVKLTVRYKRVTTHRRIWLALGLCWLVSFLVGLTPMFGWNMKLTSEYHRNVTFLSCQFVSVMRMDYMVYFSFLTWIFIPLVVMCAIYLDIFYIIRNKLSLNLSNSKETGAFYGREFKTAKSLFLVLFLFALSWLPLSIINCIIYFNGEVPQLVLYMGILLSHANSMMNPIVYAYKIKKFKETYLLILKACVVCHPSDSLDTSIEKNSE
Method: as §1, §2, §3

| SMILES | Adenosine A1 receptor ECR* [1] | Adenosine A3 receptor ECR* [2] |
| --- | --- | --- |
| CC(C)(C)c1cc([C@H]2O[C@@H](n3cnc4c(NC5CCOCC5)ncnc43)[C@H](O)[C@@H]2O)on1 [Example 28, (2S,3S,4R,5R)-2-(3-tert-Butyl-isoxazol-5-yl)-5-[6-(tetrahydro-pyran-4-ylamino)-purin-9-yl]-tetrahydro-furan-3,4-diol] | 0.42 | 44.7 |
| O[C@@H]1[C@H](O)[C@@H](c2nnc(C(F)(F)F)o2)O[C@H]1n1cnc2c(NC3CCCC3)ncnc21 [Example 178, (2R,3R,4S,5S)-2-[6-(cyclo-pentylamino)-9H-purin-9-yl]-5-[5-(trifluoromethyl)-1,3,4-oxadiazol-2-yl]-tetrahydrofuran-3,4-diol] | 7.42 | >471 |
| O[C@@H]1[C@H](O)[C@@H](c2nnc(C3CC3)o2)O[C@H]1n1cnc2c(NC3CCOCC3)ncnc21 [Example 108, (2S,3S,4R,5R)-2-(5-cyclopropyl-1,3,4-oxadiazol-2-yl)-5-[6-(tetrahydro-2H-pyran-4-ylamino)-9H-purin-9-yl]tetrahydrofuran-3,4-diol] | 1.52 | 254 |
| CCOC(=O)N1CCC(Nc2ncnc3c2ncn3[C@@H]2O[C@H](c3nnc(C4CC4)o3)[C@@H](O)[C@H]2O)CC1 [Example 12, 4-{9-[5S-(5-Cyclopropyl-[1,3,4]oxadiazol-2-yl)-3R,4S-dihydroxy-tetrahydro-furan-2R-yl]-9H-purin-6-ylamino}-piperidine-1-carboxylic acid ethyl ester] | 2.28 | 254 |
| CCC(CC)Nc1nc(Cl)nc2c1ncn2[C@@H]1O[C@H](c2nc(C3CC3)no2)[C@@H](O)[C@H]1O.O=CO.O=CO [Example 133, (2R,3R,4S,5S)-2-{2-chloro-6-[(1-ethylpropyl)amino]-9H-purin-9-yl}-5-(3-cyclopropyl-1,2,4-oxadiazol-5-yl)tetrahydrofuran-3,4-diol formate (1:2)] | 25.47 | 466.92 |
